What was measured:
Format in all cases: cell-based, mouse
IL-13 mRNA in LN cells = test: IL-13 mRNA by real-time PCR in LN cells of GA-immunized CD-1, BALB/cByJ, SJL/J mice (Example III); conditions: stimulation 2.5 μg/mL, 6 hours
Experimental: (§1) On Day 0, mice were immunized with 250 μg GA (GMA, Mylan Pharmaceuticals, Inc.) and CFA. The GA solution (20 mg/mL) was diluted with Dulbecco's Phosphate-Buffered Saline to 5 mg/mL. The dosing formulation consisted of equal volumes of the diluted GA solution (5 mg/mL) and CFA solution, mixed until well-emulsified. Animals were weighed and allocated to groups. Animals were dosed by injection into four footpads. The injection volume per animal was 0.1 mL (about 10 μL into each front footpad, and 40 μL into each hind footpad).
(§2) Immunized animals were euthanized by cervical dislocation on Day 10 post-immunization. Lymph node cells were isolated from animals and treated with Myelin Basic Protein (MBP, a negative control), Concanavalin A (ConA, a positive control) or GA as shown in Table 16. Lymph nodes in the axillary and popliteal regions were removed aseptically in a purifier clean bench. […] The LN were then washed 3 times with −5 mL of RPMI medium, and isolated by pressing the LN with a syringe plunger. […] The cell suspension was centrifuged at about 200×g for 10 minutes at about 4° C. and re-suspended in ice cold enriched DCCM-1 medium. Cells were seeded in 96-well tissue culture plates.
(§3) LN cells isolated from GA-immunized animals were stimulated with GA (GMA, Mylan Pharmaceuticals, Inc.) at concentrations as indicated in Tables 16 and 17. A positive control was prepared by treating LN cells with 2.5 μg/mL concavalin A (ConA, a non-specific T cell stimulant). Myelin basic protein (MBP, 10 μg/mL) and enriched DCCM-1 medium served as negative controls. The cells from all groups each were stimulated with the same GA lot. Each reaction was set up in triplicate.
(§4) After incubation at about 37° C. in a humidified CO2 incubator for 6 hours, the cells were lysed for total RNA isolation. Total RNA was isolated from treated LN cells using SV 96 Total RNA Isolation System according to the manufacturer's protocol (Promega, Cat. #Z3500). Cells were washed once with Phosphate Buffered Saline (PBS) and lysed in RNA lysis buffer. The lysate was transferred to wells of the SV 96 binding plate. Samples were washed with RNA wash solution and treated with DNase. Total RNA was eluted with nuclease-free water from the binding plate.
(§5) After the reverse transcriptase reaction was completed, cDNA samples were used directly for real-time PCR to measure the response biomarker mRNA levels produced by the stimulated cells. […] All probes for target genes contained FAM dye, and probes for the internal control contained VIC®/MGB dye. Samples will be prepared and run in 96-well plates using a Real-Time PCR system (7500, Life Technologies). This system allows direct detection of PCR-product formation by measuring the increase in fluorescent emission continuously during the PCR reaction. A relative quantitation method was used to analyze changes in mouse IL-2, IL-4, IL-5, IL-10, IL-13, IFN-γ and TNF-α expression in GA-treated samples relative to the untreated control (enriched DCCM-1 treated) samples. The Real-Time PCR program was:
(§6) The levels of mouse cytokine amplicons (IL-2, IL-4, IL-5, IL-10, IL-13, mIFN-γ and TNF-α) were normalized to internal probe levels (GAPDH) from the same samples. The following equations were used to calculate the relative increase in response to GA stimulation compared to the control sample: ΔCT=CT_target−CT_reference ΔΔCT=−ΔCT_Treated−CT_VC

[1] = test system: KC (CXCL1) secreted by LN cells; test: KC (CXCL1) secretion by GA-stimulated LN cells, MSD 9-plex ELISA (Example II); conditions: 21 hr
[2] = test system: IFN-γ secreted by LN cells; test: IFN-γ secretion by GA-stimulated LN cells, MSD ELISA, 21 and 45 hr (Example II)
IL-10 mRNA in LN cells = test: IL-10 mRNA by real-time PCR in LN cells of GA-immunized CD-1, BALB/cByJ, SJL/J mice (Example III); conditions: stimulation 2.5 μg/mL, 6 hours
Experimental: as §1, §2, §3, §4, §5, §6

[3] = test system: IL-2 secreted by LN cells; test: IL-2 secretion by GA-stimulated LN cells, MSD 9-plex ELISA (Example II); conditions: 21 hr
[4] = Group 2C: BALB/cByJ, GA-immunized
[5] = BALB/cByJ, immunized GA Lower Limb
[6] = C57BL10J, immunized GA Intraplantar
[7] = C57BL10J, immunized GA Lower Limb

Concanavalin A [ConA, reference compound]
IL-13 mRNA Expression (IL-13 mRNA in LN cells; Group 1C: CD-1, GA-immunized): 31.3 fold change vs control | IL-13 mRNA Expression (IL-13 mRNA in LN cells; [4]): 32.0 fold change vs control | IL-13 mRNA Expression (IL-13 mRNA in LN cells; Group 3C: SJL/J, GA-immunized): 24.4 fold change vs control | KC secretion response ratio (treated cell medium to control DCCM1 medium) [1, 5]: 0.90 | KC secretion response ratio (treated cell medium to control DCCM1 medium) [1, 6]: 1.55 | KC secretion response ratio (treated cell medium to control DCCM1 medium) [1, 7]: 1.28 | KC secretion response ratio (treated cell medium to control DCCM1 medium) ([1]; CD-1, immunized GA Lower Limb): 1.65 | IFN-γ secretion response ratio (treated cell medium to control DCCM1 medium) ([2]; BALB/cByJ, immunized GA Intraplantar, 21 hr): 9.70 | IFN-γ secretion response ratio (treated cell medium to control DCCM1 medium) ([2]; BALB/cByJ, immunized GA Intraplantar, 45 hr): 11.40 | IFN-γ secretion response ratio (treated cell medium to control DCCM1 medium) ([2]; BALB/cByJ, immunized GA Lower Limb, 21 hr): 6.24 | IFN-γ secretion response ratio (treated cell medium to control DCCM1 medium) ([2]; BALB/cByJ, immunized GA Lower Limb, 45 hr): 7.33 | IFN-γ secretion response ratio (treated cell medium to control DCCM1 medium) ([2]; BALB/cByJ, immunized Mannitol Intraplantar, 21 hr): 4.40 | IFN-γ secretion response ratio (treated cell medium to control DCCM1 medium) ([2]; BALB/cByJ, immunized Mannitol Intraplantar, 45 hr): 3.48 | IFN-γ secretion response ratio (treated cell medium to control DCCM1 medium) ([2]; C57BL10J, immunized GA Intraplantar, 21 hr): 11.55 | IFN-γ secretion response ratio (treated cell medium to control DCCM1 medium) ([2]; C57BL10J, immunized GA Intraplantar, 45 hr): 53.10 | IFN-γ secretion response ratio (treated cell medium to control DCCM1 medium) ([2]; C57BL10J, immunized GA Lower Limb, 21 hr): 5.07 | IFN-γ secretion response ratio (treated cell medium to control DCCM1 medium) ([2]; C57BL10J, immunized GA Lower Limb, 45 hr): 5.15 | IFN-γ secretion response ratio (treated cell medium to control DCCM1 medium) ([2]; C57BL10J, immunized Mannitol Intraplantar, 21 hr): 4.05 | IFN-γ secretion response ratio (treated cell medium to control DCCM1 medium) ([2]; C57BL10J, immunized Mannitol Intraplantar, 45 hr): 5.90 | IFN-γ secretion response ratio (treated cell medium to control DCCM1 medium) ([2]; CD-1, immunized GA Intraplantar, 21 hr): 10.14 | IFN-γ secretion response ratio (treated cell medium to control DCCM1 medium) ([2]; CD-1, immunized GA Intraplantar, 45 hr): 5.47 | IFN-γ secretion response ratio (treated cell medium to control DCCM1 medium) ([2]; CD-1, immunized GA Lower Limb, 21 hr): 1.90 | IFN-γ secretion response ratio (treated cell medium to control DCCM1 medium) ([2]; CD-1, immunized GA Lower Limb, 45 hr): 1.89 | IFN-γ secretion response ratio (treated cell medium to control DCCM1 medium) ([2]; CD-1, immunized Mannitol Intraplantar, 21 hr): 9.35 | IFN-γ secretion response ratio (treated cell medium to control DCCM1 medium) ([2]; CD-1, immunized Mannitol Intraplantar, 45 hr): 9.68 | IL-10 mRNA Expression (IL-10 mRNA in LN cells; Group 1C: CD-1, GA-immunized): 0.4 fold change vs control | IL-10 mRNA Expression (IL-10 mRNA in LN cells; [4]): 0.9 fold change vs control | IL-10 mRNA Expression (IL-10 mRNA in LN cells; Group 3C: SJL/J, GA-immunized): 0.4 fold change vs control | IL-2 secretion response ratio (treated cell medium to control DCCM1 medium) [3, 5]: 283.65 | IL-2 secretion response ratio (treated cell medium to control DCCM1 medium) [3, 6]: 40.09 | IL-2 secretion response ratio (treated cell medium to control DCCM1 medium) [3, 7]: 31.11 | IL-2 secretion response ratio (treated cell medium to control DCCM1 medium) ([3]; CD-1, immunized GA Lower Limb): 19.64

— patent US10344330B2, “Glatiramer acetate response biomarker mRNA potency assay” (Mylan Inc., priority 2013, dated 2019)
